# Where two headings read alike, the source gives them in different places.
# Test system: Escherichia coli (ATCC25922) or Staphylococcus aureus (ATCC25923)
# Assay: Antibacterial MIC, microdilution method in Mueller-Hinton medium
# Type: cell-based
# Details: Escherichia coli, 18 h, read-out: Potency (MIC)
# How it was run: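 Two-fold serial dilutions from 64 to 0.5 μg/ml, in duplicate, by broth microdilution in Mueller-Hinton medium (NCCLS M7-A5). MIC taken as the lowest concentration preventing visible growth after 18 h at 35° C.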
# [1] = MIC in E. coli or S. aureus, two-fold serial dilutions 64 to 0.5 μg/ml in duplicate, 18 hours of incubation at 35° C.
SMILES,MIC,MIC [1]
"N[C@@H]1C[C@H](N)CN(c2nc(Nc3ccc(NC(=O)C(=O)c4c[nH]c5ccccc45)c(O)c3)nc(N3C[C@H](N)C[C@H](N)C3)n2)C1 [N-{3-hydroxy-4-[2-(1H-indol-3-yl)-2-oxo-acetylamino]-phenyl}-4,6-Bis-((3R,5S)-3,5-diamino-piperidin-1-yl)-[1,3,5]triazine-2-amine]",< 16 µg/mL,–
"Cc1ccc(Nc2nc(N3C[C@H](N)C[C@H](N)C3)nc(N3C[C@H](N)C[C@H](N)C3)n2)cc1C.Cl [N-(3,4-dimethyl-phenyl)-4,6-Bis-((3R,5S)-3,5-ddiamino-piperidin-1-yl)-[1,3,5]triazine-2-amine]",–,< 64 µg/mL
"CC(C)CCCCCC(=O)Nc1ccc(S(=O)(=O)Nc2ccc(Nc3nc(N4C[C@H](N)C[C@H](N)C4)nc(N4C[C@H](N)C[C@H](N)C4)n3)cc2O)cc1 [N-{3-hydroxy-4-[4-(7-methyl-octanoylamino)-benzenesulfonylamino]-phenyl}-4,6-Bis-((3R,5S)-3,5-diamino-piperidin-1-yl)-[1,3,5]triazine-2-amine]",< 16 µg/mL,–
"N[C@@H]1C[C@H](N)CN(c2nc(Nc3ccc(NC(=O)c4ccc5ccccc5c4O)cc3)nc(N3C[C@H](N)C[C@H](N)C3)n2)C1 [N-{4-[(1-hydroxy-naphthalene-2-carbonyl)-amino]-phenyl}-4,6-Bis-((3R,5S)-3,5-diamino-piperidin-1-yl)-[1,3,5]triazine-2-amine]",< 16 µg/mL,–
"Cc1cc(NC(=O)c2cc3cccc(O)c3cc2O)ccc1Nc1nc(N2C[C@H](N)C[C@H](N)C2)nc(N2C[C@H](N)C[C@H](N)C2)n1 [N-{4-[(3,5-dihydroxy-naphthalene-2-carbonyl)-amino]-2-methyl-phenyl}-4,6-Bis-((3R,5S)-3,5-diamino-piperidin-1-yl)-[1,3,5]triazine-2-amine]",–,< 64 µg/mL
"Cl.NC(=O)CNc1nc(N2C[C@H](N)C[C@H](N)C2)nc(N2C[C@H](N)C[C@H](N)C2)n1 [N-carbamoylmethyl-4,6-Bis-((3R,5S)-3,5-diamino-piperidin-1-yl)-[1,3,5]triazine-2-amine]",–,> 64 µg/mL
"COc1ccc(C(=O)Nc2ccc(Nc3nc(N4C[C@H](N)C[C@H](N)C4)nc(N4C[C@H](N)C[C@H](N)C4)n3)cc2O)cc1 [N-[3-hydroxy-4-(4-methoxy-benzoylamino)-phenyl]-4,6-Bis-((3R,5S)-3,5-diamino-piperidin-1-yl)-[1,3,5]triazine-2-amine]",< 16 µg/mL,–
"COc1cc(NC(=O)CC(=O)c2ccc(Nc3nc(N4C[C@H](N)C[C@H](N)C4)nc(N4C[C@H](N)C[C@H](N)C4)n3)cc2)c(OC)cc1Cl [N-{4-[2-(4-chloro-2,5-dimethoxy-phenylcarbamoyl)-acetyl]-phenyl}-4,6-Bis-((3R,5S)-3,5-diamino-piperidin-1-yl)-[1,3,5]triazine-2-amine]",< 16 µg/mL,–
"Cc1ccc(S(=O)(=O)N(Cc2ccccc2)c2ccc(Nc3nc(N4C[C@H](N)C[C@H](N)C4)nc(N4C[C@@H](O)[C@@H](O)C4)n3)cc2O)cc1 [N-Benzyl-N-{4-[4-((3R,5S)-3,5-diamino-piperidin-1-yl)-6-((3R,4S)-3,4-dihydroxy-pyrrolidin-1-yl)-[1,3,5]triazin-2-ylamino]-2-hydroxy-phenyl}-4-methyl-benzenesulfonamide]",< 64 µg/mL,–
"Cl.O=C(CC(=O)c1ccc(Nc2nc(N3CCCCC3)nc(N3CCCCC3)n2)cc1)Nc1ccccc1Cl [N-(2-Chloro-phenyl)-3-{4-[4-(3S,5R)-3,5-diamino-piperidin-1-yl)-6-((R)-3-hydroxy-piperidin-1-yl)-[1,3,5]triazin-2-ylamino]-phenyl}-3-oxo-propionamide]",–,< 64 µg/mL
"Cc1ccc(S(=O)(=O)N(Cc2ccccc2)c2ccc(Nc3nc(N4C[C@H](N)C[C@H](N)C4)nc(N4C[C@@H](N)[C@@H](N)C4)n3)cc2O)cc1 [N-Benzyl-N-{4-[4-((3R,5S)-3,5-diamino-piperidin-1-yl)-6-((3R,4S)-3,4-diamino-pyrrolidin-1-yl)-[1,3,5]triazin-2-ylamino]-2-hydroxy-phenyl}-4-methyl-benzenesulfonamide]",< 16 µg/mL,–
"Cl.N[C@@H]1C[C@H](N)CN(c2nc(Nc3ccccc3-n3cccc3)nc(N3C[C@H](N)C[C@H](N)C3)n2)C1 [N-(2-pyrrol-1-yl-phenyl)-4,6-Bis-((3R,5S)-3,5-diamino-piperidin-1-yl)-[1,3,5]triazine-2-amine]",–,< 64 µg/mL
"N[C@@H]1C[C@H](N)CN(c2nc(Nc3ccc(C(=O)N4CCOCC4)c(O)c3)nc(N3C[C@H](N)C[C@H](N)C3)n2)C1 [N-[3-hydroxy-4-(morpholine-4-carbonyl)-phenyl]-4,6-Bis-((3R,5S)-3,5-diamino-piperidin-1-yl)-[1,3,5]triazine-2-amine]",> 64 µg/mL,–
"CN(C)c1cccc(Nc2nc(N3C[C@H](N)C[C@H](N)C3)nc(N3C[C@H](N)C[C@H](N)C3)n2)c1 [N-(3-dimethylamino-phenyl)-4,6-Bis-((3R,5S)-3,5-diamino-piperidin-1-yl)-[1,3,5]triazine-2-amine]",> 64 µg/mL,–
"N[C@@H]1C[C@H](N)CN(c2nc(Nc3ccc(C(=O)CC(=O)Nc4ccccc4Cl)cc3)nc(N3C[C@@H](N)[C@@H](N)C3)n2)C1 [N-(2-Chloro-phenyl)-3-{4-[4-((3R,5S)-3,5-diamino-piperidin-1-yl)-6-((3R,4S)-3,4-diamino-pyrrolidin-1-yl)-[1,3,5]triazin-2-ylamino]-phenyl}-3-oxo-propionamide]",< 64 µg/mL,–
"NC[C@H]1[C@@H](O)CCN1c1nc(Nc2ccc(C(=O)CC(=O)Nc3ccccc3Cl)cc2)nc(N2C[C@H](N)C[C@H](N)C2)n1 [3-{4-[4-((2S,3S)-2-Aminomethyl-3-hydroxy-pyrrolidin-1-yl)-6-((3R,5S)-3,5-diamino-piperidin-1-yl)-[1,3,5]triazin-2-ylamino]-phenyl}-N-(2-chloro-phenyl)-3-oxo-propionamide]",< 64 µg/mL,–
"N[C@@H]1C[C@H](N)CN(c2cc(Nc3ccc(NC(=O)c4ccc5ccccc5c4O)cc3)cc(N3C[C@H](N)C[C@H](N)C3)n2)C1 [1-Hydroxy-naphthalene-2-carboxylic acid [4-(2,6-Bis-((3R,5S)-3,5-diamino-piperidin-1-yl)-pyridin-4-ylamino)-phenyl]-amide]",< 16 µg/mL,–
"Cc1csc2c(NNc3nc(N4C[C@H](N)C[C@H](N)C4)nc(N4C[C@H](N)C[C@H](N)C4)n3)ncnc12.Cl [N-(4,6-Bis-((3R,5S)-3,5-diamino-piperidin-1-yl)-[1,3,5]triazin-2-yl)-N′-(7-Methyl-thieno[3,2-d]pyrimidin-4-yl)-hydrazine]",–,> 64 µg/mL
"Cc1ccc(S(=O)(=O)N(Cc2ccccc2)c2ccc(Nc3nc(N4C[C@H](N)C[C@H](N)C4)nc(N4C[C@H](CN)C[C@H](CN)C4)n3)c(O)c2)cc1 [N-Benzyl-N-{4-[4-((3S,5R)-3,5-bis-(aminomethyl)-piperidin-1-yl)-6-((3R,5S)-3,5-diamino-piperidin-1-yl)-[1,3,5]triazin-2-ylamino]-3-hydroxy-phenyl}-4-methyl-benzenesulfonamide]",< 64 µg/mL,–
"N[C@@H]1C[C@H](N)CN(c2nc3nc(Nc4ccc(NC(=O)c5ccc6ccccc6c5O)cc4)nc(N4C[C@H](N)C[C@H](N)C4)c3[nH]2)C1 [1-Hydroxy-naphthalene-2-carboxylicacid {4-[6-((3R,5S)-3,5-diamino-piperidin-1-yl)-8-((3S,5R)-3,5-diamino-piperidin-1-yl)-7H-purin-2-ylamino]-phenyl}-amide]",< 16 µg/mL,–
